Values after ≈ are worked out from the molar mass of the structure shown.
Key:
Assay in all cases: microbe, parasite or virus in culture
[1] = tested on: A. baumannii ATCC 19606; conditions: A. baumannii 19606
How it was run: (§1)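 Broth microdilution MIC in cation-adjusted Mueller-Hinton broth, final inoculum 1 × 10⁵ CFU/mL. Peptides in 0.02% TFA + 0.04% BSA, 2-fold series 0.25 to 128 μg/mL, duplicate, 37 °C for 20 h without agitation. Growth imaged; MIC read visually per CLSI.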

[2] = tested on: E. coli ATCC 35218; conditions: E. coli 35218
How it was run: as §1

[3] = tested on: E. faecium ATCC 19434; conditions: E. faecium 19434
How it was run: as §1

[4] = tested on: E. faecium ATCC 49224; conditions: E. faecium 49224
How it was run: as §1

[5] = tested on: K. pneumoniae ATCC 13883; conditions: K. pneumoniae 13883
How it was run: as §1

[6] = tested on: K. pneumoniae ATCC 700603; conditions: K. pneumoniae 700603
How it was run: as §1

[7] = tested on: P. aeruginosa ATCC 27853; conditions: P. aeruginosa 27853
How it was run: as §1

[8] = tested on: P. aeruginosa MRSN 5519; conditions: P. aeruginosa 5519
How it was run: as §1

[9] = tested on: S. aureus ATCC 25923; conditions: S. aureus 25923
How it was run: as §1

[10] = tested on: S. aureus ATCC 43300; conditions: S. aureus 43300
How it was run: as §1

[11] = tested on: P. aeruginosa PA01; assay type: cell-based
How it was run: as §1

[12] = tested on: P. aeruginosa PA01 (Si); assay type: cell-based; conditions: P. aeruginosa PA01 (Si), not typical ESKAPEE strain
Excerpt: Supplement 41522_2025_837_MOESM13_ESM.xlsx, sheet "Table_S13_ESKAPEE-MIC" | column: Bacterial MIC (µg/mL)

[13] = CAMHB, 1 × 10⁵ CFU/mL, 0.25 to 128 μg/mL, 37 °C 20 h, duplicate, read visually (CLSI)

With `CC[C@H](C)[C@H](NC(=O)[C@H](CCCCN)NC(=O)[C@H](CCC(=O)O)NC(=O)[C@H](CCCCN)NC(=O)[C@H](CO)NC(=O)[C@H](CCCCN)NC(=O)[C@H](CCCNC(=N)N)NC(=O)[C@H](Cc1ccccc1)NC(=O)[C@H](Cc1ccccc1)NC(=O)[C@H](CC(=O)O)NC(=O)CNC(=O)[C@H](CC(C)C)NC(=O)[C@@H](N)CC(C)C)C(=O)NCC(=O)N[C@@H](CCCCN)C(=O)N[C@@H](CCC(=O)O)C(=O)N[C@@H](Cc1ccccc1)C(=O)N[C@@H](CCCCN)C(=O)N[C@@H](CCCNC(=N)N)C(=O)N[C@H](C(=O)N[C@H](C(=O)N[C@@H](CCC(N)=O)C(=O)N[C@@H](CCCNC(=N)N)C(=O)N[C@H](C(=O)N[C@@H](CCCCN)C(=O)N[C@@H](CC(=O)O)C(=O)N[C@@H](Cc1ccccc1)C(=O)N[C@@H](CC(C)C)C(=O)N[C@@H](CCCNC(=N)N)C(=O)N[C@@H](CC(N)=O)C(=O)N[C@@H](CC(C)C)C(=O)N[C@H](C(=O)N1CCC[C@H]1C(=O)N[C@@H](CCCNC(=N)N)C(=O)N[C@H](C(=O)N[C@@H](CCC(=O)O)C(=O)N[C@@H](CO)C(=O)O)[C@@H](C)O)C(C)C)[C@@H](C)CC)C(C)C)[C@@H](C)CC` [LL-37, reference compound] the MIC [1, 13] was 2 µg/mL (≈ 0.445 µM), the “Bacterial MIC” value ([1]; Week 1 (12/6/2023)) was 2 µg/mL and the MIC [2, 13] was 8 µg/mL (≈ 1.78 µM). For the same molecule, the “Bacterial MIC” value ([2]; Week 2 (12/14/2023)) was 8 µg/mL, the MIC [3, 13] was 32 µg/mL (≈ 7.12 µM) and the “Bacterial MIC” value ([3]; Week 1 (12/6/2023)) was 32 µg/mL. The “Bacterial MIC” value ([3]; Week 2 (12/14/2023)) was 64 µg/mL, the MIC [4, 13] was 32 µg/mL (≈ 7.12 µM) and the “Bacterial MIC” value ([4]; Week 1 (12/6/2023)) was 32 µg/mL. For the same molecule, the “Bacterial MIC” value ([4]; Week 2 (12/14/2023)) was 64 µg/mL, the MIC [5, 13] was 4 µg/mL (≈ 0.89 µM) and the “Bacterial MIC” value ([5]; Week 1 (12/6/2023)) was 4 µg/mL. The “Bacterial MIC” value ([5]; Week 2 (12/14/2023)) was 8 µg/mL, the MIC [6, 13] was 32 µg/mL (≈ 7.12 µM) and the “Bacterial MIC” value ([6]; Week 1 (12/6/2023)) was 32 µg/mL. The MIC [7, 13] was 8 µg/mL (≈ 1.78 µM), the “Bacterial MIC” value ([7]; Week 1 (12/6/2023)) was 8 µg/mL and the “Bacterial MIC” value ([7]; Week 2 (12/14/2023)) was 8 µg/mL. The MIC [8, 13] was 16 µg/mL (≈ 3.56 µM), the “Bacterial MIC” value ([8]; Week 1 (12/6/2023)) was 16 µg/mL and the “Bacterial MIC” value ([8]; Week 2 (12/14/2023)) was 16 µg/mL. For the same molecule, the MIC [9, 13] was over 128 µg/mL, the “Bacterial MIC” value ([9]; Week 1 (12/6/2023)) was over 128.000 µg/mL and the “Bacterial MIC” value ([9]; Week 2 (12/14/2023)) was over 128.000 µg/mL. For the same molecule, the MIC [10, 13] was over 128 µg/mL, the “Bacterial MIC” value ([10]; Week 1 (12/6/2023)) was over 128.000 µg/mL and the “Bacterial MIC” value ([10]; Week 2 (12/14/2023)) was over 128.000 µg/mL. The “Bacterial MIC” value ([11]; P. aeruginosa 15692 (PAO1), Week 2 (12/14/2023)) was 16 µg/mL, the MIC ([11]; P. aeruginosa PA01, CAMHB, 1 × 10⁵ CFU/mL, 0.25 to 128 μg/mL, 37 °C 20 h, duplicate, read visually (CLSI)) was 4 µg/mL (≈ 0.89 µM) and the “Bacterial MIC” value ([12]; Week 1 (12/6/2023)) was 4 µg/mL. The “Bacterial MIC” value ([12]; Week 2 (12/14/2023)) was 4 to 8 µg/mL.

From publication PMC12635268, “Novel antimicrobial peptides and peptide-microbiome crosstalk in Appalachian salamander skin” (NPJ Biofilms and Microbiomes, 2025)
